Test results reported in ChEMBL document CHEMBL1145498, “A systematic interaction map of validated kinase inhibitors with Ser/Thr kinases” (Proc Natl Acad Sci U S A, 2007).
Values after ≈ are worked out from the molar mass of the structure shown. Blank lines part the entries; values can stand above or below the compound they belong to. Active and inactive are the calls of the source. No cut-off for these calls is given here.

Key:
[1] = Inhibition of p60v-src kinase
[2] = target: Cyclin-dependent kinase 7/ cyclin H (Homo sapiens, UniProt P50613); assay: Inhibition of Cdk7/H/MAT1; format: protein-complex assay
[3] = target: Myosin light chain kinase, smooth muscle (Homo sapiens, UniProt Q15746); assay: Binding affinity at MLCK
[4] = Binding affinity at PKA
[5] = target: Calcium/calmodulin-dependent protein kinase kinase 2 (Homo sapiens, UniProt Q96RR4); assay: Inhibition of CaM-KKbeta
[6] = target: Mitogen-activated protein kinase 1 (Homo sapiens, UniProt P28482); assay: Inhibition of ERK2
[7] = target: Casein kinase I isoform epsilon (Homo sapiens, UniProt P49674); assay: Inhibition of CK1epsilon
[8] = target: Platelet-derived growth factor receptor (Homo sapiens, UniProt P09619+P16234); assay: Inhibition of PDGF; format: protein-complex assay
[9] = target: Epidermal growth factor receptor (Homo sapiens, UniProt P00533); assay: Inhibition of EGF
[10] = target: Inhibitor of nuclear factor kappa-B kinase subunit beta (Homo sapiens, UniProt O14920); assay: Inhibition of IKK-beta
[11] = target: Receptor tyrosine-protein kinase erbB-4 (Homo sapiens, UniProt Q15303); assay: Inhibition of erbB4/Her4
Homo sapiens = species: Homo sapiens; assay: Reduction of growth in human acute leukemic blasts; format: functional
[12] = target: Bcl2-associated agonist of cell death (Homo sapiens) (UniProt Q92934); assay: Reduction of BAD phosphorylation in human MV4-11 cells at 1 uM by Western blot; format: functional, cell-based
Platelet = assay: Inhibition of collagen-induced human platelet aggregation; format: functional, cell-based
[13] = target: Membrane-associated tyrosine- and threonine-specific cdc2-inhibitory kinase (Homo sapiens, UniProt Q99640); assay: Inhibition of Myt1
[14] = target: Dual specificity protein kinase CLK3 (Mus musculus, UniProt O35492); assay: Inhibition of mouse Clk3
[15] = Antitumor activity in human Col1 cells; format: functional, cell-based
[16] = Inhibition of diacylglycerol kinase in isolated platelet membrane; format: cell membranes
[17] = target: Serine/threonine-protein kinase Chk2 (Homo sapiens, UniProt O96017)
[18] = Inhibition of MAPK
[19] = target: Protein kinase C zeta type (Homo sapiens, UniProt Q05513); assay: Inhibition of PKCzeta
[20] = Inhibition of PDGF receptor kinase
[21] = target: Tyrosine-protein kinase Yes (Homo sapiens, UniProt P07947); assay: Inhibition of Yes kinase
Blood = assay: Inhibition of TNFalpha release in human whole blood; format: functional, tissue-based
PBMC = assay: Inhibition of IL1 release in human PBMC; format: functional, cell-based
[22] = Inhibition of Cdk/cyclin D1
[23] = Inhibition of Cdk6/cyclin D1
[24] = target: RAF proto-oncogene serine/threonine-protein kinase (Homo sapiens, UniProt P04049); assay: Inhibition of Raf1
[25] = target: Mitogen-activated protein kinase kinase kinase 8 (Homo sapiens, UniProt P41279); assay: Inhibition of Tpl2 kinase
Protein kinase C (PKC) = assay: Inhibition of rat brain PKC
[26] = target: Tyrosine-protein kinase ZAP-70 (Homo sapiens, UniProt P43403); assay: Inhibition of ZAP70
[27] = target: Mitogen-activated protein kinase 14 (Homo sapiens, UniProt Q16539); assay: Inhibition of SAPK2a/p38-alpha
[28] = Inhibition of JNK
Transcription factor Jun = Transcription factor Jun (Homo sapiens, UniProt P05412); assay: Inhibition of AP1 activity
[29] = target: Dual specificity mitogen-activated protein kinase kinase 4 (Homo sapiens, UniProt P45985); assay: Inhibition of MKK4
[30] = Inhibition of FLT3 ITD mutant
[31] = target: Vascular endothelial growth factor receptor 2 (Homo sapiens, UniProt P35968); assay: Inhibition of KDR
[32] = Growth inhibition of v-ras transformed human bronchial cells; format: functional
[33] = target: Tyrosine-protein kinase Lck (Homo sapiens, UniProt P06239); assay: Inhibition of p56lck autophosphorylation
Tyrosine-protein kinase Lck, sequence (P06239 whole entry): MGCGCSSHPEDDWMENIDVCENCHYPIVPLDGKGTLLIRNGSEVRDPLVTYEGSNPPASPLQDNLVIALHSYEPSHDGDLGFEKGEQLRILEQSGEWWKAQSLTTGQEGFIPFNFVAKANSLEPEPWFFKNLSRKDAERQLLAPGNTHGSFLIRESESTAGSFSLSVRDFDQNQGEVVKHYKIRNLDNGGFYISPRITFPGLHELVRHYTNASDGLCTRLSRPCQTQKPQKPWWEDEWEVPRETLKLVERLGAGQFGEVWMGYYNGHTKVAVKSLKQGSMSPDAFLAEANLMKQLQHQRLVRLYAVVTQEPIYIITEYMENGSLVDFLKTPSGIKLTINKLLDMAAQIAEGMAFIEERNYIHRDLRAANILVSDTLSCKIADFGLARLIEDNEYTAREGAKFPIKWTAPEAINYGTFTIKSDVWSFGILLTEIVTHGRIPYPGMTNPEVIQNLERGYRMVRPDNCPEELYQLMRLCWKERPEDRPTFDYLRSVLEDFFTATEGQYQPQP

Mitogen-activated protein kinase 1, sequence (P28482 whole entry, canonical isoform): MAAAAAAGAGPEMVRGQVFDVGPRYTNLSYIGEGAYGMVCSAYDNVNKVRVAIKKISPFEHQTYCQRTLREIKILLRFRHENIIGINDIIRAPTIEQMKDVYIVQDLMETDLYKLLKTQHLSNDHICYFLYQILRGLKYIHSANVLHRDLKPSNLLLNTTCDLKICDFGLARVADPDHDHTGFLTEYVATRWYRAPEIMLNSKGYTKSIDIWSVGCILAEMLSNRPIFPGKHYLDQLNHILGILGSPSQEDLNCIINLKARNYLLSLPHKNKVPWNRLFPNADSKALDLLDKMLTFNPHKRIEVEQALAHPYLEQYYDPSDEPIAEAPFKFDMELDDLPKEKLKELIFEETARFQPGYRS
Dual specificity mitogen-activated protein kinase kinase 4, sequence (P45985 whole entry): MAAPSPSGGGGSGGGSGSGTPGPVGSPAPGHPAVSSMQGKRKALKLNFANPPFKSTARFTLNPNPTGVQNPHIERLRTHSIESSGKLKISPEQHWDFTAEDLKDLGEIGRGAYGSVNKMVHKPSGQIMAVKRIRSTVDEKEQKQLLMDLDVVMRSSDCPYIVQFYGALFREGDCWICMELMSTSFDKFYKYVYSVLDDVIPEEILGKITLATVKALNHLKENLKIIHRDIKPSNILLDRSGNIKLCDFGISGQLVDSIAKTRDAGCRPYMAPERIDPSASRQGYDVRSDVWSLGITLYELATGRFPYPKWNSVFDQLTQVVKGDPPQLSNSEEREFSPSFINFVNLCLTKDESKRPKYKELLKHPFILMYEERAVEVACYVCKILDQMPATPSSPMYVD
Tyrosine-protein kinase ZAP-70, sequence (P43403 whole entry): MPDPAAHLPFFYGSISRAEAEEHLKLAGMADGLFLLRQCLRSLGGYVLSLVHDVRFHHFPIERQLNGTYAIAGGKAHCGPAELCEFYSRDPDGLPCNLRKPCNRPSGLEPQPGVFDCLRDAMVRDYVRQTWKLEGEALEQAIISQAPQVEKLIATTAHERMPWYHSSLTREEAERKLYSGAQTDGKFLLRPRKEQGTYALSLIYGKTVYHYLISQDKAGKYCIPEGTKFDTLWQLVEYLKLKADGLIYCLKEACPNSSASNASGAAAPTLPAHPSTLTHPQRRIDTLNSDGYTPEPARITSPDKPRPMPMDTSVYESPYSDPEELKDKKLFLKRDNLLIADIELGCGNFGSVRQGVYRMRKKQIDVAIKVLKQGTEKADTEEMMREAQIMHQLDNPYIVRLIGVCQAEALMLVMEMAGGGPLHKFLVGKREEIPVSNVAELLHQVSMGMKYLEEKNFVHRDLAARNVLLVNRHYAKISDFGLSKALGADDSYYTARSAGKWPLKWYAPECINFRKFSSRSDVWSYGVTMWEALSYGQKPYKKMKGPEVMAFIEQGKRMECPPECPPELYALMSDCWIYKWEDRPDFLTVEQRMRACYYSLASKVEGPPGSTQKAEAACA
RAF proto-oncogene serine/threonine-protein kinase, sequence (P04049 whole entry): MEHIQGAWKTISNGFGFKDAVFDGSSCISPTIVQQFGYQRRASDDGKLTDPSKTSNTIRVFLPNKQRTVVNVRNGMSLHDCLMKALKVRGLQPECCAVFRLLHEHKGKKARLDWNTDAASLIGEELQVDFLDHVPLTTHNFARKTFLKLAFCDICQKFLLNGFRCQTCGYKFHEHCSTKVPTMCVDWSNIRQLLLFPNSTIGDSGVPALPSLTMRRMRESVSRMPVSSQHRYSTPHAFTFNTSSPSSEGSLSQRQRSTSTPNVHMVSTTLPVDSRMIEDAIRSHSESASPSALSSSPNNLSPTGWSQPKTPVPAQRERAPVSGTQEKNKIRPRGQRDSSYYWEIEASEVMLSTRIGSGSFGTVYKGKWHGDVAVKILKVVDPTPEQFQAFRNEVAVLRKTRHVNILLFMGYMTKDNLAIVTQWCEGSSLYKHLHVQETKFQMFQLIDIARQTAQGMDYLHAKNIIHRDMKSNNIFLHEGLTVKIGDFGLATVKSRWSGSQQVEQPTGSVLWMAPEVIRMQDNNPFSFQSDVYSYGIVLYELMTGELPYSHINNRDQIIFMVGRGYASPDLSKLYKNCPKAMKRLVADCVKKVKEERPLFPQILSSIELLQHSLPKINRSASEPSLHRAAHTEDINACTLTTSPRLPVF
Dual specificity protein kinase CLK3, sequence (O35492 whole entry): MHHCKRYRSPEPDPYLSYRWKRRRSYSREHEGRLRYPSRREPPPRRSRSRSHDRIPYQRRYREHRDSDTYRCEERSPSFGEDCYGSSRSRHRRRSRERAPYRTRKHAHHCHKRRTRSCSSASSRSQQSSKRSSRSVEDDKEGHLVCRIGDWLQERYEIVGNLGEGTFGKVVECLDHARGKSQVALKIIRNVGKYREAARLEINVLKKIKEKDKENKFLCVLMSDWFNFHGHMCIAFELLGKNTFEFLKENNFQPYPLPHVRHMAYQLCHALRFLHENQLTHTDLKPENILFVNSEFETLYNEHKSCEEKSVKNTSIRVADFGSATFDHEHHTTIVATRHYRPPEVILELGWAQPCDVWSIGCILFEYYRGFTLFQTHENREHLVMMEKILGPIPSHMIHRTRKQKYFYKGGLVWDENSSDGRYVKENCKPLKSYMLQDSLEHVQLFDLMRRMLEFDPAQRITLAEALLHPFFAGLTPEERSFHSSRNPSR
Casein kinase I isoform epsilon, sequence (P49674 whole entry, canonical isoform): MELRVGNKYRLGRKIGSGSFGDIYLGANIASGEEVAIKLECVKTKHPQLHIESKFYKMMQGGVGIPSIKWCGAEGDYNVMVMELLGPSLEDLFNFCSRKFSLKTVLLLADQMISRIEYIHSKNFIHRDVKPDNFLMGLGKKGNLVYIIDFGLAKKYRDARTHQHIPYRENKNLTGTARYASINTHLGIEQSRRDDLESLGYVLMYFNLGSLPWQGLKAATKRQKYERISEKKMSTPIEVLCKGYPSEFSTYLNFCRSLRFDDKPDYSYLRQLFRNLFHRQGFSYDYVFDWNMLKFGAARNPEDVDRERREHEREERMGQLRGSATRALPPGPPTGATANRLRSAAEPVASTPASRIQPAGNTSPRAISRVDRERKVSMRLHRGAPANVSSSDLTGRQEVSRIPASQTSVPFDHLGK
Serine/threonine-protein kinase Chk2, sequence (O96017 whole entry): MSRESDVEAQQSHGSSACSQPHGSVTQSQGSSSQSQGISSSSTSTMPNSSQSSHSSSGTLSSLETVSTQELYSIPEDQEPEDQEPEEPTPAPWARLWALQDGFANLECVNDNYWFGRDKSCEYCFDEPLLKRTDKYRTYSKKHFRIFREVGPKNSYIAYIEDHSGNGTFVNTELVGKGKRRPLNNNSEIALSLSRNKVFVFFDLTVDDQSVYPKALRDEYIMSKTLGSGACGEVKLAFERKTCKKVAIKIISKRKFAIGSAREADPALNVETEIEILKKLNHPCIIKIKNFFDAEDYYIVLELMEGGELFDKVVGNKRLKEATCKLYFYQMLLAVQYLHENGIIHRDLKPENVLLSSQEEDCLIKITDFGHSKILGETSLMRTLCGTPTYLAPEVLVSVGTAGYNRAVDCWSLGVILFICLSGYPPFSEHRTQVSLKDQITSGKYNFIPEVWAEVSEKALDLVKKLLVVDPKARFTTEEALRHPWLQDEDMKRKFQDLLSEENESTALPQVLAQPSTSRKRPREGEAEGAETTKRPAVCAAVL
Inhibitor of nuclear factor kappa-B kinase subunit beta, sequence (O14920 whole entry): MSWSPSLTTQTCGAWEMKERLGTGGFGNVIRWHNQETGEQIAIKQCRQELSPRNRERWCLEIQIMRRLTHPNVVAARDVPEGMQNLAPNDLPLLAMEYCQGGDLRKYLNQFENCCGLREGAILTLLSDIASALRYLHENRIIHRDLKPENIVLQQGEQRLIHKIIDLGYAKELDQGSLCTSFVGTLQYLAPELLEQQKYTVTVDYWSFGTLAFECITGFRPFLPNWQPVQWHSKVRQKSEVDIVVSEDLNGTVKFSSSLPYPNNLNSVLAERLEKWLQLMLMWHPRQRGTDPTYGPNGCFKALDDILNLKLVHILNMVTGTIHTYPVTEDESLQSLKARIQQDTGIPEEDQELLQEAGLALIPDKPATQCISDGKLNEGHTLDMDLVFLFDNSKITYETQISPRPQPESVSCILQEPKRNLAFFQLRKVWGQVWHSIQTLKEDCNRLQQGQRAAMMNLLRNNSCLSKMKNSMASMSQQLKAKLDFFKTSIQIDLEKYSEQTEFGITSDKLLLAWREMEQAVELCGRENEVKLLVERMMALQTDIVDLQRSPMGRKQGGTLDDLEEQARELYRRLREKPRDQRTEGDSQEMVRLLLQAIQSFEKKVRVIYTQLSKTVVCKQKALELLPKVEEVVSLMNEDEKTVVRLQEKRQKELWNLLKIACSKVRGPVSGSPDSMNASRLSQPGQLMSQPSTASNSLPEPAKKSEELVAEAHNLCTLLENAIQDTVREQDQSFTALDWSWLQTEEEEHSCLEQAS
Bcl2-associated agonist of cell death (Homo sapiens), sequence (Q92934 whole entry): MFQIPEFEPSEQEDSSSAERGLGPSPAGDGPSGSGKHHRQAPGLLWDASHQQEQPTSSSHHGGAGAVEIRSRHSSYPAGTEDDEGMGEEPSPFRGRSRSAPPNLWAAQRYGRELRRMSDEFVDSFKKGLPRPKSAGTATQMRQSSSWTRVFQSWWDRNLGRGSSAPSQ

SMILES: C[C@@H]1C[C@H]2O[C@@H]2/C=C\C=C\C(=O)Cc2c(Cl)c(O)cc(O)c2C(=O)O1 [RADICICOL]
IC50 [1]: 0.00027 µM

SMILES: N=C(N)NCCNS(=O)(=O)c1cccc2cnccc12
Ki [3]: 150 µM
Ki [4]: 2.3 µM
Ki [5]: 13 µM
Kd [6]: 5 µM

SMILES: COc1cc(OC)c(/C=C2\C(=O)Nc3ccccc32)c(OC)c1
IC50 [7]: 0.6 µM

SMILES: COc1cc(O)c2c(c1)oc(=O)c1c3cc(O)c(O)cc3oc21 [WEDELOLACTONE]
IC50 [10]: > 10 µM

SMILES: CN(C)C[C@@H]1CCn2cc(c3ccccc32)C2=C(C(=O)NC2=O)c2cn(c3ccccc23)CCO1 [RUBOXISTAURIN]
Activity (Homo sapiens): Active
Activity [12]: Active

SMILES: C[S+]([O-])c1ccc(-c2nc(-c3ccc(F)cc3)c(-c3ccncc3)[nH]2)cc1 (configuration not stated) [SB-203580]
IC50 (Platelet): 0.2 µM

SMILES: CN1CCc2[nH]c(=S)c(C#N)c(-c3cccs3)c2C1
IC50 [13]: 1.2 µM

SMILES: CCN1/C(=C/C(C)=O)Sc2ccc(OC)cc21
IC50 [14]: > 10 µM

SMILES: Cc1ccc(NC2=CC(=O)c3sc(C)nc3C2=O)cc1
IC50 [15]: 1080 µg/mL (≈ 3.8 mM)

SMILES: COc1ccc(CNc2nc(N(CCO)CCO)nc3c2ncn3C(C)C)cc1
IC50 [18]: > 1250 µM

SMILES: C[S+]([O-])c1ccc(CSc2nc(-c3ccc(F)cc3)c(-c3ccncc3)[nH]2)cc1 (configuration not stated)
IC50 (Blood): 3.65 µM
IC50 (PBMC): 0.88 µM

SMILES: O=C1c2ccccc2-[n+]2ccc3c([nH]c4ccccc43)c21 [FASCAPLYSIN CHLORIDE]
IC50 [22]: 0.35 µM
IC50 [23]: 3.4 µM

SMILES: CC(C)(C)n1nc(-c2ccc(Cl)cc2)c2c(N)ncnc21
IC50 [26]: > 100 µM

SMILES: Cn1cnc2c(NCc3ccccc3)nc(NCCO)nc21 [OLOMOUCINE]
IC50 [18]: 25 µM

SMILES: Cc1c2ccncc2c(C)c2c1[nH]c1ccccc12 [ELLIPTECINE]
IC50 [32]: 15 µM
IC50 [33]: 18.5 µM

Results, then the compound that gave them:

IC50 [2]: 0.071 µM
SMILES: CC(C)c1nn(-c2c(Cl)cccc2Cl)c2nc(Cc3ccc(OCCO)cc3)[nH]c(=O)c12

IC50 [8]: > 100 µM
IC50 [9]: > 100 µM
SMILES: CCOC(=O)c1c(C)[nH]c(/C=C2\C(=O)Nc3ccccc32)c1C

IC50 [11]: 7.64 µM
SMILES: O=C(Nc1cccc(Nc2cc(Nc3cccc(C(F)(F)F)c3)ncn2)c1)C1CC1

IC50 [16]: 0.3 µM
SMILES: O=c1c2ccccc2[nH]c(=S)n1CCN1CCC(=C(c2ccc(F)cc2)c2ccc(F)cc2)CC1 [DIACYLGLYCEROL KINASE INHIBITOR II]

IC50 [17]: 3 µM
SMILES: O=C1NC(=O)c2c1c1c3ccccc3[nH]c1n1cncc21 [ISOGRANULATIMIDE]

Ki [4]: 32 µM
SMILES: O=S(=O)(c1cccc2c(Cl)cccc12)N1CCCNCC1

IC50 [19]: 5.8 µM
SMILES: CN(C)CCCn1cc(C2=C(c3c[nH]c4ccccc34)C(=O)NC2=O)c2ccccc21 [GF-109203]

IC50 [20]: > 10 µM
IC50 [21]: 0.02 µM
SMILES: CN(C)S(=O)(=O)c1ccc2c(c1)/C(=C/c1cc3c([nH]1)CCCC3)C(=O)N2

IC50 [24]: 34.5 µM
IC50 [25]: 0.05 µM
SMILES: O=C1C(Cl)=C(N2C(=O)CCC2=O)C(=O)c2ccccc21

IC50 (Protein kinase C (PKC)): 0.015 µM
SMILES: Cl.Cn1cc(C2=C(c3ccc4cc5n(c4c3)CCC(CN)C5)C(=O)NC2=O)c2ccccc21 (configuration not stated)

IC50 [27]: 2 µM
SMILES: Cc1ccc(NC(=O)c2cccc(N(C)C)c2)cc1NC(=O)c1ccc(O)cc1

IC50 [28]: > 10 µM
IC50 (Transcription factor Jun): 2.03 µM
IC50 [29]: > 10 µM
SMILES: N#C/C(=C(/N)Sc1ccc(N)cc1)c1ccccc1C(F)(F)F

IC50 [30]: 0.3 µM
IC50 [6]: ≥ 10 µM
IC50 [31]: ≥ 10 µM
SMILES: c1ccc(-c2n[nH]c3c2oc2ccccc23)cc1
